Values joined by “and” are separate entries in the source; they are usually repeats but may differ in a detail not shown here. Equal entries are not always repeated. Where two headings read alike, the source gives them in different places.

One data set concerns NQO1. The data set is described as follows: Induction of NQO1 in Hepa1c1c7 murine hepatoma cells. The note with it: for EC (2-fold NQO1 activity): Hepa1c1c7 cells, 48 h treatment, read-out: NQO1 CD (concentration required to double the specific enzyme activity of NQO1); for magnitude of NQO1 induction at higher concentrations: FIG. 3, concentrations higher than the CD values. The class given is cell-based. From the text: In this assay, the concentration required to double (CD value) the specific enzyme activity of NQO1 is used to quantify inducer potency. […] Dinkova-KOstova, A. T. et al. 2012). […] These compounds may be more robust inducers than monocyclic compounds. [table]

A short description of data set [1]: UV study of Michael adduct formation with DTT. Format: physicochemical. The note with it: for A (absorbance) With DTT (1 equiv) / λmax With DTT (1 equiv) / A (absorbance) With DTT (10 equiv) / λmax With DTT (10 equiv): 0.1 mM compound, phosphate buffer saline-1% ethanol (pH 7.4), rt; for A (absorbance) With DTT (1 equiv) / λmax With DTT (1 equiv): 0.1 mM DTT; for A (absorbance) With DTT (10 equiv) / λmax With DTT (10 equiv): 1 mM DTT; for K (equilibrium constant): 0.1 mM of compound with 0.1 mM of DTT. The method, then: Calculation of Approximate Equilibrium Constant (K)
The concentrations of 3, with initial concentration of 0.1 mM, and DTT, with initial concentration of 0.1 mM, in the phosphate buffer are calculated to be 0.0855 mM as follows: (1) The absorbance (A) is 0.956 at 0.1 mM concentration of 3 in deionized water. (2) The A of 3 is 0.817 in the phosphate buffer. (3) The concentrations of 3 and DTT in the buffer are calculated to be 0.0855 mM based on (1) and (2). From these concentrations, the approximate K is calculated as follows: K=[Adduct]/[3]×[DTT]=0.0145×10^−3/[…]=2.0×10^3 (Liters/mol).
Unfortunately, since the λmax of 4-8 was not observed due to the overlapping, we can't calculate the concentrations of the adducts of 4-8 by the same method as for 3. However, since we can speculate that the ε of the adducts of 4-8 is almost similar to that of the adduct of 2, we can calculate the concentrations of the adducts of 4-8 based on the A (0.227 at 0.0145 mM) of the adduct of […] and the A of the adducts of 4-8. For example, the concentration of the adduct of 5 is 0.0145×0.369 (A of the adduct of 5)/0.227=0.0235 (mM). Therefore, the concentrations of 5 and DTT are 0.0765 (mM/each). Thus, K of 5=0.0235×10^−3/0.0765×0.0765×10^−6=4.0×10^3 (Liters/mol). The K of 4 and 6-8 are also calculated using the A (0.227 at 0.0145 mM) of the adduct of 3 and the A of the adducts of 4 and 6-8, respectively.
Chemical reactivity of monocyclic, bicyclic, and tricyclic compounds 4-15 as Michael acceptors was evaluated using UV spectroscopy.
Michael reaction between ethynylcyanodienones with DTT give adducts IV (Scheme 11). Since adducts IV have different UV absorption spectra (λmax 330-380 nm) from those of the corresponding ethynylcyanodienones (λmax 230-320 nm), UV spectroscopy can clarify whether or not the Michael adducts are produced.^6
(§1) 1. UV Studies on Monocyclic and Bicyclic Compounds 4-9 with DTT Compounds 5-8 with DTT gave similar UV spectra to those of 3 (Taylor, S. K. et al. 1988). Compounds 5-8 have local maximum absorptions at 332-338 nm upon the addition of DTT (1 and 10 equiv) under dilute (0.1 mM of the compounds) and neutral aqueous conditions (pH 7.4 phosphate buffered saline-1% ethanol containing 1 mM KH2PO4, 5.6 mM Na2HPO4, and 154 mM NaCl) (Table 1 and FIG. 2). Also, these compounds react with a chloride anion (a much weaker nucleophile than a sulfhydryl group of DTT), which is contained in the buffer solution, to give Michael adducts whose local maximum absorptions are observed at 320-326 nm.
We have calculated approximate equilibrium constants (K) of these Michael reactions in the solutions of 5-8 with DTT (each initial concentration, 0.1 mM. See the calculation of the equilibrium constants in the Supporting Information). The values of K are approximately 1.0-4.2×10^3 (L/mol), implying that these additions are very strongly favored.
Tricyclic compounds 10-15 react with DTT to give the adducts whose local maximum absorptions are observed at 374-383 nm range (Table 1 and FIG. 2). […] Among phenanthrene derivatives, substitutents at C5 decrease the reactivity.

A short description of data set [2]: UV study of Michael adduct formation with chloride anion of the buffer (without DTT). Format: physicochemical. Conditions: 0.1 mM compound, phosphate buffer saline-1% ethanol (pH 7.4). On the procedure:
as §1, with “nm. […]” for “nm.”

A word on the IC50: it is the concentration at which inhibition is half-maximal. Lower therefore signals higher potency. For `CC1(C)CC[C@]2(C(=O)O)CC[C@]3(C)[C@H](C(=O)C=C4[C@@]5(C)C=C(C#N)C(=O)C(C)(C)[C@@H]5CC[C@]43C)[C@@H]2C1` [CDDO, reference compound], the EC (2-fold NQO1 activity) in the data set with NQO1 stood at 0.0023 µM. Half-maximal inhibition in the data set on iNOS (IC50) required 23 nM.
Broadly, the melting point is the temperature of the solid-liquid transition. `C#CC1(C#C)C=CC(=O)C(C#N)=C1` [Compound 4, 3,3-Diethynyl-6-oxocyclohexa-1,4-dienecarbonitrile] registered a melting point of 110 to 111 °C. In addition, in data set [1], the “A (absorbance) With DTT (1 equiv)” value is reported as 0.614; the “λmax With DTT (1 equiv)” value was found to be 330 nm; the “A (absorbance) With DTT (10 equiv)” value was 0.510 and 0.439; the “λmax With DTT (10 equiv)” value is 333 nm and 250 nm. In addition, the “K (equilibrium constant)” value in data set [1] is 10600 L/mol. Moreover, the “approximate equilibrium constant K of Michael reaction with DTT” value in data set [1] (each initial concentration 0.1 mM) is about 10600 L/mol. For the same molecule, in data set [2], the “A (absorbance) Without DTT (With Cl^—)” value came out at 0.635 and the “λmax Without DTT (With Cl^—)” value was found to be 328 nm. Besides, the EC (2-fold NQO1 activity) in the data set with NQO1 (Mus musculus, Hepa-1c1c7) was found to be 0.18 µM. Half-maximal inhibition in the data set on iNOS (IC50) required 210 nM.
For `C#CC1(C=C)C=CC(=O)C(C#N)=C1` (stereo not drawn) [Compound 5, 3-Ethynyl-6-oxo-3-vinylcyclohexa-1,4-dienecarbonitrile], the melting point lay in the range of 76 to 77 °C. Besides, in data set [1], the “A (absorbance) With DTT (1 equiv)” value is listed as 0.369, the “λmax With DTT (1 equiv)” value was 335 nm, the “A (absorbance) With DTT (10 equiv)” value came to 0.481 and the “λmax With DTT (10 equiv)” value is 338 nm. For the same molecule, the “K (equilibrium constant)” value in data set [1] amounted to 4000 L/mol. In addition, the “approximate equilibrium constant K (calculation)” value in data set [1] (initial 0.1 mM compound and 0.1 mM DTT, phosphate buffer) is 4000 L/mol. For the same molecule, in data set [2], the “A (absorbance) Without DTT (With Cl^—)” value is reported as 0.197 and the “λmax Without DTT (With Cl^—)” value amounted to 326 nm. The EC (2-fold NQO1 activity) in the data set on NQO1 (Mus musculus, Hepa-1c1c7) came out at 0.02 µM. In the data set with iNOS, this molecule had an IC50 of 16 nM.
As to `C#CC1(CC)C=CC(=O)C(C#N)=C1` (stereo not drawn) [Compound 6, 3-Ethyl-3-ethynyl-6-oxocyclohexa-1,4-dienecarbonitrile], the melting point lay within 73 to 75 °C. Also, in data set [1], the “A (absorbance) With DTT (1 equiv)” value is 0.135, the “λmax With DTT (1 equiv)” value was 332 nm, the “A (absorbance) With DTT (10 equiv)” value is listed as 0.353 and the “λmax With DTT (10 equiv)” value came to 335 nm. Also, in data set [1], the “K (equilibrium constant)” value worked out at 1000 L/mol. In data set [2], the “A (absorbance) Without DTT (With Cl^—)” value was 0.036 and the “λmax Without DTT (With Cl^—)” value amounted to 320 nm. Further, the EC (2-fold NQO1 activity) in the data set with NQO1 (Mus musculus, Hepa-1c1c7) was found to be 0.042 µM.
Turning to `C#CC12C=C(C#N)C(=O)C=C1CCC2` (stereo not drawn) [Compound 7, 3a-Ethynyl-6-oxo-2,3,3a,6-tetrahydro-1H-indene-5-carbonitrile], the melting point was in the range of 107 to 108 °C. Also, in data set [1], the “A (absorbance) With DTT (1 equiv)” value came to 0.281, the “λmax With DTT (1 equiv)” value was found to be 333 nm, the “A (absorbance) With DTT (10 equiv)” value is listed as 0.355 and the “λmax With DTT (10 equiv)” value was found to be 337 nm. The “K (equilibrium constant)” value in data set [1] came to 2700 L/mol. Also, in data set [2], the “A (absorbance) Without DTT (With Cl^—)” value is 0.151 and the “λmax Without DTT (With Cl^—)” value turned out to be 324 nm. Also, the “magnitude of NQO1 induction at higher concentrations” value (shortened to “magnitude of NQO1 induction”) in the data set on NQO1 was “induce NQO1 more effectively than monocyclic compounds 3-6”. The EC (2-fold NQO1 activity) in the data set with NQO1 (Mus musculus, Hepa-1c1c7) is 0.056 µM. In addition, half-maximal inhibition in the data set on iNOS (IC50) required 160 nM.
`C#CC12C=C(C#N)C(=O)C=C1C(C)(C)CC2` (stereo not drawn) [Compound 8, 3a-Ethynyl-1,1-dimethyl-6-oxo-2,3,3a,6-tetrahydro-1H-indene-5-carbonitrile]: in data set [1], the “A (absorbance) With DTT (1 equiv)” value is on record as 0.376, the “λmax With DTT (1 equiv)” value was 333 nm, the “A (absorbance) With DTT (10 equiv)” value was found to be 0.472 and the “λmax With DTT (10 equiv)” value worked out at 337 nm. In addition, the “K (equilibrium constant)” value in data set [1] worked out at 4200 L/mol. In data set [2], the “A (absorbance) Without DTT (With Cl^—)” value is given as 0.279 and the “λmax Without DTT (With Cl^—)” value worked out at 324 nm. The EC (2-fold NQO1 activity) in the data set on NQO1 (Mus musculus, Hepa-1c1c7) turned out to be 0.1 µM. In the data set on iNOS, this molecule had a half-maximal inhibitory concentration (IC50) of 200 nM.
For the molecule `C#CC1(C)C=C(C#N)C(=O)c2ccccc21` (stereo not drawn) [Compound 9, 4-Ethynyl-4-methyl-1-oxo-1,4-dihydronaphthalene-2-carbonitrile], in data set [1], the “A (absorbance) With DTT (1 equiv)” value worked out at 0.848, the “λmax With DTT (1 equiv)” value is 331 nm, the “A (absorbance) With DTT (10 equiv)” value amounted to 0.872 and the “λmax With DTT (10 equiv)” value came to 333 nm. Also, in data set [2], the “A (absorbance) Without DTT (With Cl^—)” value is listed as 0.831 and the “λmax Without DTT (With Cl^—)” value is 321 nm. In addition, the EC (2-fold NQO1 activity) in the data set with NQO1 (Mus musculus, Hepa-1c1c7) came out at 0.22 µM.
`C#CC12C=C(C#N)C(=O)C=C1c1ccccc1CC2` (stereo not drawn) [Compound 10, 10a-Ethynyl-3-oxo-3,9,10,10a-tetrahydrophenanthrene-2-carbonitrile] gave a melting point of 209.5 to 211 °C. Also, in data set [1], the “A (absorbance) With DTT (1 equiv)” value is “shoulder”, the “λmax With DTT (1 equiv)” value was determined as 380 nm, the “A (absorbance) With DTT (10 equiv)” value came to 0.723 and the “λmax With DTT (10 equiv)” value came to 382 nm. For the same molecule, the “magnitude of NQO1 induction” value in the data set with NQO1 is recorded as “induce NQO1 more effectively than monocyclic compounds 3-6”. Besides, the EC (2-fold NQO1 activity) with NQO1 (Mus musculus, Hepa-1c1c7) is 0.15 µM.
In turn, `C#CC12C=C(C#N)C(=O)C=C1c1c(Cl)cccc1CC2` (stereo not drawn) [Compound 11, 5-Chloro-10a-ethynyl-3-oxo-3,9,10,10a-tetrahydrophenanthrene-2-carbonitrile] returned a melting point of over 230 °C. In data set [1], the “A (absorbance) With DTT (1 equiv)” value was “shoulder”, the “λmax With DTT (1 equiv)” value worked out at 380 nm, the “A (absorbance) With DTT (10 equiv)” value is 0.262 and the “λmax With DTT (10 equiv)” value turned out to be 380 nm. Also, the “magnitude of NQO1 induction” value with NQO1 is “induce NQO1 more effectively than monocyclic compounds 3-6”. Also, the EC (2-fold NQO1 activity) in the data set with NQO1 (Mus musculus, Hepa-1c1c7) worked out at 0.9 µM.
In turn, `C#CC12C=C(C#N)C(=O)C=C1c1c(Br)cccc1CC2` (stereo not drawn) [Compound 12, 5-Bromo-10a-ethynyl-3-oxo-3,9,10,10a-tetrahydrophenanthrene-2-carbonitrile] yielded a melting point of 202 to 205 °C. Moreover, the EC (2-fold NQO1 activity) with NQO1 (Mus musculus, Hepa-1c1c7) was 1.3 µM. The molecule also displayed a concentration for half-maximal inhibition (IC50) in the data set with iNOS of 650 nM.
The molecule `C#CC12C=C(C#N)C(=O)C=C1c1c(C)cccc1CC2` (stereo not drawn) [Compound 13, 10a-Ethynyl-5-methyl-3-oxo-3,9,10,10a-tetrahydrophenanthrene-2-carbonitrile] registered a melting point of 195.5 to 197 °C. In addition, in data set [1], the “A (absorbance) With DTT (10 equiv)” value was determined as 0.279 and the “λmax With DTT (10 equiv)” value was found to be 374 nm. Further, the EC (2-fold NQO1 activity) in the data set with NQO1 (Mus musculus, Hepa-1c1c7) was 1.8 µM. In the data set on iNOS, this molecule gave a half-maximal inhibitory concentration (IC50) of 940 nM.
With `C[S+]([O-])CCCCN=C=S` (stereo not drawn) [Sulforaphane, reference compound], in the data set with NQO1 (Mus musculus, Hepa-1c1c7), the EC (2-fold NQO1 activity) was found to be 0.2 µM. This molecule also yielded an IC50 with iNOS of 400 nM.
